Source: US7179645B2 (priority 2002, dated 2007)
Where a SMILES comes first, the peptide text is derived from it. [ ]: non-standard residue; d: D form. The star is where a group is joined. Nle = CCCC[C@H](N)C(=O)O; Cbz = O=C(OCc1ccccc1)*; ava = not defined here

Tests used:
[1] = test system: orthopoxviruses, including variola; settings: cited from earlier work
[2] = test system: primary mouse macrophages and macrophage-like cell lines; settings: cited from earlier work
SKOV3.A2 = settings: cited from earlier work
[3] = test system: early stage breast cancer patients; settings: in vivo; cited from earlier work
[4] = test system: C3H/HeJ mice (H-2^k); antibodies against the PGCC(95–104) epitope peptide; settings: mouse, in vivo
[5] = test system: C3H/HeJ(H-2^k) mice; splenic T cells; type: in vivo, mouse; settings: for IFN-γ/Th-1 responses to the HIV gp160(843–855) epitope (ELISPOT): C3H/HeJ mice, 40 nmole, boosts day 13 and 31, spleens day 35
Description: An ELISPOT assay for IFN-γ cytokine responses was performed in order to titer more exactly splenic T lymphocyte subset responses to immunization with Ii-Key-ava-gp160(843–855) or gp160(843–855). The assay was performed as follows. A solution of the cytokine-specific capture antibody (100 μl at 6 μg/ml in phosphate-buffered saline solution, pH 7.2) was added to each well of a 96-well Immunospot plate (M200) for an overnight incubation at 4° C. After aspiration, phosphate-buffer saline solution 200 μl containing 10% fetal bovine serum and 1% penicillin-streptomycin-glutamine (mouse medium) was added to each well for 2 hr at RT. After washing four times with 1% Tween-20 in phosphate-buffered saline solution (wash buffer I), 100 μl of single cell suspensions from the spleens of immunized mice at 10^6 cells/well were re-stimulated with 100 μl of peptide-epitope at 5 μg/well in mouse medium and incubated for 20–40 hr at 37° C., 5% CO2. After washing twice with phosphate-buffered saline solution (wash buffer II) and four times with wash buffer 1,100 μl of 2 μg/ml biotinylated anti-mouse IFN-γ in 1× phosphate buffer saline with 10% fetal bovine serum (dilution buffer) was added to each well for 2 hr at RT. After washing five times with wash buffer 1,100 μl of streptavidin-horse radish peroxidase conjugate (1:500) in dilution buffer was added to each well for 1 hr at RT. After washing four times with wash buffer I and two times with wash buffer II, 100 μl of the 3-amino-9-ethylcarbazole/H2O2 substrate (Pharmingen 551951) was added and incubated for 30–60 min in the dark at RT. The reaction was stopped by washing three times with 200 μl of deionized water. ELISPOT data analysis was performed by using the Immunospot 1.7e software (Cellular Limited Technology). Digitized images of quadruplicate wells were analyzed for the presence of spots in which color density exceeds background based on comparison of control cells (naive splenocytes) and experimental cells (splenocytes of immunized mice) cells. Additional counting parameters for spot size and circularity were applied to gate out speckles caused by non-specific antibody binding. Each spot represents a single cell secreting IFN-γ.
C3H/HeJ(H-2^k) mice were immunized with 40 nmole of peptides (50 μl) emulsified with equal volume of incomplete Freund's adjuvant (IFA), subcutaneously at the base of the tail. On day 13 the mice were boosted subcutaneously at the base of the tail with 40 nmole of peptides (50 μl) emulsified with equal amount of incomplete Freund's adjuvant (IFA). On day 31, the mice were boosted intravenously with 40 nmole peptides dissolved in 100 μl Hank's balanced salts solution (HBSS). […]

[6] = test system: B10.A (5R) mice; antibodies against the HIV gp160(843–855) peptide; type: in vivo, mouse; settings: peptides in saline solution; for Antibody induction (ELISA), Dilution^−1 20: serum day 35, against HIV gp160(843–855) peptide, serum dilution^−1 20; for Antibody induction (ELISA), Dilution^−1 60: serum day 35, serum dilution^−1 60; for Antibody induction (ELISA), Dilution^−1 180: serum day 35, serum dilution^−1 180; for Antibody induction (ELISA), Dilution^−1 540: serum day 35, serum dilution^−1 540
Description: An ELISA assay for antibody responses following immunization with the experimental peptides indicated above was performed as follows. Fifty microliters (μl) of a solution of the coating peptide at 2 μg/well in 0.1 M carbonate buffer, pH 9.5 was added to each well of a 96-well Nunc-immunoplate (#442404) for an overnight incubation at 4° C. After aspiration, 250 μl of phosphate-buffer saline solution containing 3% fetal bovine serum (assay diluent) was added to each well for 2 hr at RT. After washing three times with assay diluent, 50 μl of 20-times diluted mouse serum in 1:3 serial dilution in assay diluent was added to each well for 2 hr at RT. After washing three times with assay diluent, 50 μl of 1 μg/ml biotinylated goat anti-mouse IgG1 or IgG2a was added to each well and incubated for 1 hr at RT. After washing three times with assay diluent, 50 μl of streptavidin-horse radish peroxidase conjugate (1:1000) was added to each well and incubated for 30 min at RT. After washing three times with assay diluent, 100 μl of tetramethylbenzidine/H2O2 solution (Pharmingen 264 KK) was added to each well for 15 min in the dark at room temperature. The reaction was stopped with 100 μl 1N H2SO4 in each well and the absorbance was read immediately at 450 nm.
B10.A (5R) mice (H-2) were immunized with 20 nmole of peptides in 50 μl phosphate-buffered saline solution, intramuscularly in right and left rear legs on days 1 and 2, respectively. On day 14 the mice were boosted intramuscularly with 40 nmole of peptides in 200 μl Hank's balanced salts solution intramuscularly in a rear leg. On day 30 the mice were boosted intravenously with 40 nmole peptides dissolved in Hank's balanced salts solution (HBSS). On day 35 the mice were sacrificed and serum samples were assayed for antibody titers against the HIV gp160(843–855) peptide.

[7] = test system: tumor cells expressing HLA-A24 and CEA; settings: cited from earlier work
[8] = test system: lymphocytes from HLA-B7+ normal blood donors; settings: cited from earlier work
[9] = test system: mice in an ovalbumin-induced asthmatic response; settings: mouse, in vivo; cited from earlier work
[10] = test system: HLA alleles of the A2 supertype (A2.2, A2.3, A2.6 and A6802); settings: cited from earlier work
[11] = test system: MBP-specific autoantibodies in the CSF; settings: human, in vivo; cited from earlier work
[12] = test system: patients with resected melanoma; settings: human, in vivo; cited from earlier work
[13] = test system: B10(A) 5R mice; splenic CD3+/CD4+ T-helper cells; type: in vivo, mouse; settings: splenic cells day 26, double color FACS
Excerpt: To test the mechanism for the much greater immunogenecity of Ii-Key/epitope hybrids epitope peptides, B10(A) 5R mice were immunized with 10 nmole of either gp160(843–855) peptide or Ii-Key/gp160(843–855) in CFA subcutaneously at the right side of the base of the tail. On day 10 the mice were boosted with 40 nmole of hybrid peptide or epitope peptide in saline by intravenous injection. On day 26 mice were sacrificed and splenic cells were obtained. 1×10^6 splenic mononuclear cells were stimulated overnight in the presence of 10 units of recombinant IL-2 and indicated peptides (10 μg/ml). During the last 3 hours of incubation, 2 μM monensin (Golgi-stop, Pharmingen) was added to the cultures, and cells were then stained for both cellular surface markers and intracellular IFN-γ. The FACS assay to quantify antigen specific Th1 helper cell responses was performed as follows. The cells were incubated with 1 μg […] (FC/block, Pharmingen) per 10^6 cells in 100 μl of staining buffer (Dulbecco's phosphate-buffered saline solution without magnesium or calcium). Those cells were stained at 10^6 cells/100 μl with either rat-anti-mouse CD3 or CD4 monoclonal antibodies for 30 min at 4° C. After washing, the cells were re-suspended, fixed with 4% formaldehyde, and permeablized with 0.5% saponin for 20 min at 4° C. The cells were suspended in staining buffer with 0.5% saponin, and stained with the appropriate anti-cytokine or isotype control antibody (IFN-γ, XMG1.2, Pharmingen or IFN-γ isotype control, R3–34, Pharmingen). The cells were incubated for 30 min at 4° C. in the dark, washed and fixed for 10 min with 0.3% formaldehyde in 0.5% saponins in staining buffer for flow cytometric analysis. Flow cytometric analysis was performed as follows. First, CD3^+ cells were gated using dual color dot plot of side scatter versus CD3 FITC as the T-gate population. The CD3^+ cells were then analyzed for CD4 expression to target the CD3^+/CD4^+ T-helper cell population. […]

[14] = IFN-γ ELISPOT, C3H/HeJ(H-2^k) mice, spleens day 35, re-stimulated with HIV gp160(843–855) peptide

Nc1ccn(C[C@@H](CO)OCP(=O)(O)O)c(=O)n1 [Cidofivir]
activity against orthopoxviruses [1]: shows activity

CC(C)C[C@@H](C=O)NC(=O)[C@H](CC(C)C)NC(=O)[C@H](CC(C)C)NC(=O)OCc1ccccc1 [MG132] (Cbz-Leu-Leu-Leu-aldehyde)
LeTx cytotoxicity [2]: efficiently block

CCCC[C@@H](C=O)NC(=O)[C@H](CC(C)C)NC(=O)[C@H](CC(C)C)NC(C)=O [acetyl-Leu-Leu-norleucinal] (Ac-Leu-Leu-[Nle]-aldehyde)
presentation of the CTL epitope Her-2/neu(369–377) (SKOV3.A2): inhibited

CC(=O)N[C@@H](CSC(=O)[C@]1([C@@H](O)C(C)C)NC(=O)[C@H](C)[C@@H]1O)C(=O)O [lactacystin]
LeTx cytotoxicity [2]: efficiently block

CC/C(=C(\c1ccccc1)c1ccc(OCCN(C)C)cc1)c1ccccc1 [tamoxifen]
overall survival [3]: benefited overall survival | survival [3]: did not improve survival

Ac-IAYLKQATAK-NH2 [PGCC, reference compound]
Antibody induction (ELISA), Dilution^−1 1620 [4]: −0.003 | Antibody induction (ELISA), Dilution^−1 4860 [4]: 0.003

Ac-LRMK-AYRAIRHIPR-NH2 [gp160(843–855)]
IFN-γ/Th-1 responses to the HIV gp160(843–855) epitope (ELISPOT) [5]: IFN-γ/Th-1 responses were elicited

Ac-LRMK-ava-YRAIRHIPR-NH2 [Ii-Key/one-ava/gp160(844–855)]
IFN-γ/Th-1 responses to the HIV gp160(843–855) epitope (ELISPOT) [5]: IFN-γ/Th-1 responses were elicited

Gp160 (843–855) (LRMKAYRAIRHIPR)
Antibody induction (ELISA), Dilution^−1 20 [6]: 0.052 | Antibody induction (ELISA), Dilution^−1 60 [6]: 0.023 | Antibody induction (ELISA), Dilution^−1 180 [6]: 0.000 | Antibody induction (ELISA), Dilution^−1 540 [6]: −0.005

HLFYSWYK [9.5.6]
elicitation of CTL lines lysing tumor cells expressing HLA-A24 and CEA [7]: elicited CTL lines that lysed tumor cells

IPQQHTQVL [CEA9(632)]
primary CTL responses [8]: induced primary CTL responses

ISQAVHAAHAEINAAGR [336E-A]
airway eosinophilia and OVA-specific IL-4 and IL-5 production [9]: significant decrease

Ii-Key/one-ava/gp160 (843–855) (Ac-LRMK[ava]AYRAIRHIPR-NH2; reading uncertain)
Antibody induction (ELISA), Dilution^−1 20 [6]: 0.600 | Antibody induction (ELISA), Dilution^−1 60 [6]: 0.157 | Antibody induction (ELISA), Dilution^−1 180 [6]: 0.073 | Antibody induction (ELISA), Dilution^−1 540 [6]: 0.024

Ii-Key/two-ava/gp160 (843–855) (Ac-LRMK[ava][ava]AYRAIRHIPR-NH2; reading uncertain)
Antibody induction (ELISA), Dilution^−1 20 [6]: 0.131 | Antibody induction (ELISA), Dilution^−1 60 [6]: 0.039 | Antibody induction (ELISA), Dilution^−1 180 [6]: 0.027 | Antibody induction (ELISA), Dilution^−1 540 [6]: 0.003

LMTFWNPPV [9.5.2]
binding to other common HLA alleles of the A2 supertype [10]: bound tightly | anti-tumor CTL responses [7]: induced vigorous anti-tumor CTL responses

P85VVHFFKNIVTP96 (PVVHFFKNIVTP; listed as Homo sapiens)
neurological or systemic side effects [11]: No neurological or systemic side effects were observed | tolerance to MBP [11]: induced tolerance

QYSWFVNGTF [9.5.4]
elicitation of CTL lines lysing tumor cells expressing HLA-A24 and CEA [7]: elicited CTL lines that lysed tumor cells

YMDGTMSQV [tyrosinase(368–376)(370D)]
patients developing a positive skin test response [12]: none

gp160 (843–855) (LRMKAYRAIRHIPR)
Number (mean number of spots and standard deviation in triplicate wells) [5, 14]: 5 (+/−3.6) | Size (mean spot size and standard deviation) [5, 14]: 0.019 (+/−0.01) mm^2 | Percentage of cells CD3^+/IFN-γ^+ [13]: 2.05% | Percentage of cells CD4^+ [13]: 31.03% | Percentage of cells CD4^+/IFN-γ^+ [13]: 0.94%
